Laboratory results from ChEMBL document CHEMBL6078680, “Improving the Stability and Anti-Infective Activity of Sea Turtle AMPs Using Multiple Structural Modification Strategies” (J Med Chem, 2024).
Active and inactive are the calls of the source. No cut-off for these calls is given here. Positions of bridges follow the written chain, without caps; N, C: chain ends. Residues, ends and D or L forms follow the SMILES beside them.

Assays:
[1] = test system: Enterococcus faecium; assay: Antimicrobial activity against Enterococcus faecium 34 assessed as reduction in microbial growth incubated for 18 hrs by broth microdilution method; format: functional
[2] = test system: Escherichia coli; assay: Antimicrobial activity against Escherichia coli CMCC44102 assessed as reduction in microbial growth incubated for 18 hrs by broth microdilution method; format: functional
[3] = test system: Pseudomonas aeruginosa; assay: Antimicrobial activity against Pseudomonas aeruginosa CMCC10104 assessed as reduction in microbial growth incubated for 18 hrs by broth microdilution method; format: functional
[4] = test system: Staphylococcus aureus; assay: Antimicrobial activity against Staphylococcus aureus CMCC 26003 assessed as reduction in microbial growth incubated for 18 hrs by broth microdilution method; format: functional
[5] = test system: Clostridium perfringens; assay: Antimicrobial activity against Clostridium perfringens ATCC 13124 assessed as reduction in microbial growth incubated for 18 hrs by broth microdilution method; format: functional
[6] = test system: Staphylococcus aureus; assay: Antimicrobial activity against Staphylococcus aureus ATCC 43300 assessed as reduction in microbial growth incubated for 18 hrs by broth microdilution method; format: functional
[7] = test system: Enterococcus faecalis; assay: Antimicrobial activity against Enterococcus faecalis ATCC 29217 assessed as reduction in microbial growth incubated for 18 hrs by broth microdilution method; format: functional
[8] = test system: Staphylococcus epidermidis; assay: Antimicrobial activity against Staphylococcus epidermidis assessed as reduction in microbial growth incubated for 18 hrs by broth microdilution method; format: functional
[9] = test system: Staphylococcus aureus; assay: Antimicrobial activity against Staphylococcus aureus 08032706 assessed as reduction in microbial growth incubated for 18 hrs by broth microdilution method; format: functional
[10] = test system: Peritoneal macrophage; assay: Antiinflammatory activity in mouse Peritoneal macrophage cells assessed as inhibition of LPS-induced TNF-alpha production at 20 microg/ml incubated for 6 hrs by ELISA analysis; format: functional, cell-based; settings: dose 20.0 µg/ml
[11] = test system: Peritoneal macrophage; assay: Antiinflammatory activity in mouse Peritoneal macrophage cells assessed as inhibition of LPS-induced IL-6 production at 20 microg/ml incubated for 6 hrs by ELISA analysis; format: functional, cell-based; settings: dose 20.0 µg/ml
[12] = test system: Acinetobacter baumannii; assay: Drug resistance, ratio of MIC for Acinetobacter baumannii ATCC1960 after 40 passages to MIC for Acinetobacter baumannii ATCC1960 during first exposure; format: functional
[13] = test system: Staphylococcus aureus; assay: Antibiofilm activity against Staphylococcus aureus CMCC 26003 assessed as inhibition of biofilm formation incubated for 48 hrs by crystal violet staining based analysis; format: functional, organism-based
[14] = test system: Acinetobacter baumannii; assay: Antibiofilm activity against Acinetobacter baumannii ATCC 19606 assessed as inhibition of biofilm formation incubated for 48 hrs by crystal violet staining based analysis; format: functional, organism-based
[15] = test system: Staphylococcus aureus; assay: Antibiofilm activity against Staphylococcus aureus CMCC 26003 assessed as biofilm eradication incubated for 24 hrs by crystal violet staining based analysis; format: functional, organism-based
[16] = test system: Staphylococcus aureus; assay: Antibiofilm activity against Staphylococcus aureus CMCC 26003 assessed as reduction in biofilm formation at 0.5 times MIC incubated for 24 hrs by crystal violet staining based analysis; format: functional; set-up: scale not given: the % may be the effect or the level left
[17] = test system: Staphylococcus aureus; assay: Antibiofilm activity against Staphylococcus aureus CMCC 26003 assessed as biofilm eradication at 0.5 to 2 times MIC incubated for 24 hrs by crystal violet staining based analysis; format: functional
[18] = test system: Acinetobacter baumannii; assay: Antipersister-activity against Acinetobacter baumannii ATCC 19606 assessed as elimination of persister cells at 50 times MIC preincubated adherent persistent cells with colistin incubation for 24 hrs; format: functional
[19] = test system: Cell membrane; assay: Disruption of cell membrane integrity in Staphylococcus aureus CMCC 26003 assessed as cell membrane damage at 5 times MIC measured after 30 mins by scanning electron microscopic analysis; format: subcellular
[20] = test system: Escherichia coli; assay: Antibacterial activity against Escherichia coli ATCC 25922 assessed as increase in intracellular ROS production at 1 times MIC by DCFH-DA staining based assay; format: functional, organism-based
[21] = test system: Escherichia coli; assay: Antibacterial activity against Escherichia coli ATCC 25922 assessed as increase in intracellular ROS production at 2 to 5 times MIC by DCFH-DA staining based assay; format: functional, organism-based
[22] = test system: Staphylococcus aureus; assay: Antibacterial activity against Staphylococcus aureus CMCC 26003 assessed as increase in intracellular ROS production incubated for 1 hr by DCFH-DA staining based assay; format: functional, organism-based
[23] = test system: Staphylococcus aureus; assay: Bactericidal activity against Staphylococcus aureus CMCC 26003 assessed as bacterial eradication incubated at 0.5 hrs in presence of thiourea; format: functional, organism-based
[24] = Acute toxicity in BALB/c mouse assessed as mortality at 10 mg/kg, iv measured for 24 hrs; format: organism-based; settings: in vivo, read-out: Activity
[25] = Acute toxicity in BALB/c mouse assessed as mortality at 15 mg/kg, iv measured for 24 hrs; format: organism-based; settings: in vivo, read-out: Activity
[26] = Acute toxicity in BALB/c mouse assessed as mortality at 20 mg/kg, iv measured for 24 hrs; format: organism-based; settings: in vivo, read-out: Activity
[27] = Acute toxicity in BALB/c mouse assessed as mortality at 50 mg/kg, iv measured for 24 hrs; format: organism-based; settings: in vivo, read-out: Activity
[28] = Acute toxicity in BALB/c mouse assessed as effect on BUN level at 10 mg/kg, iv measured for 24 hrs; format: organism-based; settings: in vivo
[29] = Acute toxicity in BALB/c mouse assessed as effect on ALT level at 10 mg/kg, iv measured for 24 hrs; format: organism-based; settings: in vivo
[30] = test system: Acinetobacter baumannii; assay: In vivo antibacterial activity against Acinetobacter baumannii ATCC19606 infected in BALB/c mouse assessed as survival at 15 mg/kg, ip administered for 12 hrs and measured on day 7; format: functional; settings: ATCC19606, 168 h, time 7 day
[31] = test system: Acinetobacter baumannii; assay: In vivo antibacterial activity against Acinetobacter baumannii ATCC19606 infected in BALB/c mouse assessed as reduction in bacterial load at 15 mg/kg, ip; format: functional, organism-based; settings: time 3.0 hrs
[32] = test system: Acinetobacter baumannii; assay: In vivo antibacterial activity against Acinetobacter baumannii ATCC19606 infected in BALB/c mouse assessed as reduction in bacterial load in liver at 15 mg/kg, ip measured after 3 hrs; format: functional, organism-based
[33] = test system: Acinetobacter baumannii; assay: In vivo antibacterial activity against Acinetobacter baumannii ATCC19606 infected in BALB/c mouse assessed as reduction in bacterial load in kidney at 15 mg/kg, ip measured after 3 hrs; format: functional, organism-based
[34] = test system: Acinetobacter baumannii; assay: In vivo antibacterial activity against Acinetobacter baumannii ATCC19606 infected in BALB/c mouse assessed as reduction in bacterial load in liver at 15 mg/kg, ip measured after 12 hrs; format: functional, organism-based
[35] = test system: Acinetobacter baumannii; assay: In vivo antibacterial activity against Acinetobacter baumannii ATCC19606 infected in BALB/c mouse assessed as reduction in bacterial load in lung at 15 mg/kg, ip measured after 12 hrs; format: functional, organism-based
[36] = test system: Acinetobacter baumannii; assay: In vivo antibacterial activity against Acinetobacter baumannii ATCC19606 infected in BALB/c mouse assessed as reduction in bacterial load in kidney at 15 mg/kg, ip measured after 12 hrs; format: functional, organism-based
[37] = test system: Escherichia coli; assay: Drug resistance, ratio of MIC for Escherichia coli ATCC 25922 after 40 passages to MIC for Escherichia coli ATCC 25922 during first exposure; format: functional
[38] = test system: Staphylococcus aureus; assay: Antibiofilm activity against Staphylococcus aureus CMCC 26003 assessed as biofilm eradication at 8 times MIC incubated for 24 hrs by crystal violet staining based analysis; format: functional
[39] = test system: Cell membrane; assay: Disruption of cell membrane integrity in Escherichia coli ATCC 25922 assessed as cell membrane damage at 5 times MIC measured after 30 mins by scanning electron microscopic analysis; format: subcellular
[40] = test system: Staphylococcus aureus; assay: Antimicrobial activity against Staphylococcus aureus CMCC 26003 assessed as fold increase in MIC incubated for 18 hrs in presence of CCCP; format: functional

Row | SMILES | MIC [1] [µg/mL] | MIC [2] [µg/mL] | MIC [3] [µg/mL] | MIC [4] [µg/mL] | MIC [5] [µg/mL] | MIC [6] [µg/mL] | MIC [7] [µg/mL] | MIC [8] [µg/mL] | MIC [9] [µg/mL] | Activity [10] | Activity [11] | Ratio [12] | Activity [13] | Activity [14] | Activity [15] | Activity [16] [%] | Activity [17] [%] | Activity [18] [%] | Activity [19] | Activity [20] | other results
1 | CC[C@H](C)[C@H](NC(=O)[C@H](CCCNC(=N)N)NC(=O)[C@H](CO)NC(=O)[C@H](Cc1c[nH]cn1)NC(=O)[C@H](CCCNC(=N)N)NC(=O)[C@H](CC(C)C)NC(=O)[C@@H](NC(=O)[C@H](CCCNC(=N)N)NC(=O)CNC(=O)[C@H](CC(C)C)NC(=O)[C@H](CCC(N)=O)NC(=O)[C@H](CCCCN)NC(=O)[C@H](CCCNC(=N)N)NC(=O)[C@@H](NC(=O)[C@H](CCCCN)NC(=O)[C@H](CCCCN)NC(=O)[C@@H](N)Cc1ccccc1)C(C)C)C(C)C)C(=O)N[C@H](C(=O)N[C@H](C(=O)NCC(=O)NCC(=O)N[C@@H](CCCNC(=N)N)C(=O)N[C@@H](CCSC)C(=O)N[C@@H](CCCNC(=N)N)C(=O)N[C@@H](Cc1ccccc1)C(=O)O)C(C)C)[C@@H](C)O | 18.8 | 2.34 | 4.69 | 2.34 | 2.34 | 75 | 4.69 | 18.8 | 9.38 | Active | Active | 1 | Active | Active | Active | 20 | 20 | 60 | Active | Active | Activity [21]: Active; Activity [22]: Dose-dependent-effect; Activity [23]: Active; mortality at 24 h [24]: 0%; mortality at 24 h [25]: 0%; mortality at 24 h [26]: 0%; mortality at 24 h [27]: 16.7%; Activity [28]: Non-toxic; Activity [29]: Non-toxic; survival at 15 mg/kg [30]: 40%; Activity [31]: Time-dependent-effect; Activity [32]: Active; Activity [33]: Active; Activity [34]: Active; Activity [35]: Active; Activity [36]: Active
2 | CC[C@H](C)[C@H](NC(=O)[C@H](CCCNC(=N)N)NC(=O)[C@H](CO)NC(=O)[C@@H]1CSSC[C@H](N)C(=O)N[C@@H](Cc2ccccc2)C(=O)N[C@@H](CCCCN)C(=O)N[C@@H](CCCCN)C(=O)N[C@@H](C(C)C)C(=O)N[C@@H](CCCNC(=N)N)C(=O)N[C@@H](CCCCN)C(=O)N[C@@H](CCC(N)=O)C(=O)N[C@@H](CC(C)C)C(=O)NCC(=O)N[C@@H](CCCNC(=N)N)C(=O)N[C@@H](C(C)C)C(=O)N[C@@H](CC(C)C)C(=O)N[C@@H](CCCNC(=N)N)C(=O)N[C@@H](Cc2c[nH]cn2)C(=O)N1)C(=O)N[C@H](C(=O)N[C@H](C(=O)NCC(=O)NCC(=O)N[C@@H](CCCNC(=N)N)C(=O)N[C@@H](CCSC)C(=O)N[C@@H](CCCNC(=N)N)C(=O)N[C@@H](Cc1ccccc1)C(=O)O)C(C)C)[C@@H](C)O (H-CFKKVRKQLGRVLRHCSRITVGGRMRF-OH; disulfide 1-16) | 9.38 | 4.69 | 9.38 | 18.8 | 9.38 | 18.8 | 37.5 | 9.38 | 9.38 | Active | Active | 1 | Active | Active | Active | 20 | 20 | 60 | Active | Active | Ratio [37]: 1; Activity [38]: 74.3%; Activity [39]: Active; fold change (FC) [40]: 32; Activity [22]: Dose-dependent-effect; mortality at 24 h [24]: 0%; mortality at 24 h [25]: 0%; mortality at 24 h [26]: 100%; mortality at 24 h [27]: 50%; Activity [28]: Non-toxic; Activity [29]: Non-toxic; survival at 15 mg/kg [30]: 40%; Activity [31]: Time-dependent-effect; Activity [32]: Active; Activity [33]: Active; Activity [34]: Active; Activity [35]: Active; Activity [36]: Active
